Measured values from publication PMC3494675, “Structure-Function Analysis of the Glioma Targeting NFL-TBS.40-63 Peptide Corresponding to the Tubulin-Binding Site on the Light Neurofilament Subunit” (PLoS ONE, 2012).
Peptide text beside a SMILES is read from it. * marks the point of attachment. Biotin = O=C1N[C@H]2[C@H](CS[C@H]2CCCCC(=O)*)N1

Columns and labels:
[1] = tested on: T98G human glioblastoma cells; test: Peptide incorporation into T98G cells (immunocytochemistry, cell counting); assay type: cell-based; settings: 6 hours; for Peptide incorporation (% of cells): T98G cells, 10 µM biotinylated peptide, Alexa-labeled avidin/streptavidin fluorescence microscopy, minimum 200 cells per experiment, mean ± S.E.M., triplicated
Description: (§1) Cells containing the biotinylated peptide were detected using Alexa-labeled avidin (green fluorescence) and those displaying a normal or a destroyed MT network were detected with an anti-tubulin antibody (red fluorescence) ( Figure 1A-B ). Then, we counted a minimum of 200 cells per slide containing or not the peptide, and with a normal or destroyed microtubule network ( Figure 1C ). As illustrated on Figure 1A glioblastoma cells contain a rich MT network. […] Cells were plated on cover slips and cultured in media containing biotinylated peptides (10 μM) for 6 hours. […] The cells were then incubated during 10 min in a 0.5% triton X-100 permeabilization solution, and washed 3 times in PBS. Next, they were incubated in a blocking solution (PBS 5% BSA) for 15 min, then incubated with mouse anti-ß-tubulin antibody (Sigma) 1/200 overnight. Tubulin and biotinylated peptides were localized using respectively Alexa 568 nm anti-mouse antibody and streptavidin Alexa 488 nm (Molecular Probes) 1/200 for 1 hour, followed by washing in PBS. […] Sigma) for 5 min, washed twice with PBS, then cover slips were mounted with an antifading solution. Observations were performed with an Olympus confocal microscope (BX50) using Fluoview.3.1. Software or a Leica DMI6000 inverted microscope and analyzed with Metamorph 7.1.7.0. software. We counted cells containing the peptide and cells displaying a destroyed MT network. Experiments were repeated at least three times, and a minimum of 200 cells was scored during each experiment.

[2] = tested on: T98G human glioblastoma cells; test: Disintegration of the microtubule network in T98G cells (anti-tubulin immunostaining, cell counting); assay type: cell-based; settings: 6 hours; for Disintegration of MT (% of cells): T98G cells, 10 µM biotinylated peptide, anti-tubulin immunostaining, minimum 200 cells per experiment, mean ± S.E.M., triplicated
Description: as §1

SMILES	Peptide incorporation (% of cells) [1]	Disintegration of MT (% of cells) [2]	Cell penetration / internalization in T98G cells (in words) ([1]; 10 µM, immunocytochemistry, compared to original NFL-TBS.40-63)	Effect on MT network of T98G / glioma cells (in words) ([2]; 10 µM, immunocytochemistry)
CC(C)C[C@H](NC(=O)[C@H](CO)NC(=O)[C@H](CO)NC(=O)[C@H](CO)NC(=O)[C@@H](NC(=O)[C@@H]1CCCN1C(=O)[C@H](C)NC(=O)[C@H](CO)NC(=O)[C@H](Cc1ccc(O)cc1)NC(=O)[C@H](CO)NC(=O)[C@H](CO)NC(=O)[C@H](Cc1ccc(O)cc1)NC(=O)CCCC[C@@H]1SC[C@@H]2NC(=O)N[C@@H]21)C(C)C)C(=O)N[C@@H](CO)C(=O)N[C@H](C(=O)N[C@@H](CCCNC(=N)N)C(=O)N[C@@H](CCCNC(=N)N)C(=O)N[C@@H](CO)C(=O)N[C@@H](Cc1ccc(O)cc1)C(=O)N[C@@H](C)C(=O)N[C@@H](CO)C(=O)N[C@@H](CO)C(=O)N[C@@H](CO)C(=O)NCC(=O)N[C@@H](CO)C(N)=O)C(C)C [Ser19Ala] (Biotin-YSSYSAPVSSSLSVRRSYASSSGS-NH2)	5.2±0.7 % of cells	14.5±2.7 % of cells		
CC(C)C[C@H](NC(=O)[C@H](CO)NC(=O)[C@H](CO)NC(=O)[C@H](CO)NC(=O)[C@@H](NC(=O)[C@@H]1CCCN1C(=O)[C@H](C)NC(=O)[C@H](CO)NC(=O)[C@H](Cc1ccc(O)cc1)NC(=O)[C@H](CO)NC(=O)[C@H](CO)NC(=O)[C@H](Cc1ccc(O)cc1)NC(=O)CCCC[C@@H]1SC[C@@H]2NC(=O)N[C@@H]21)C(C)C)C(=O)N[C@@H](CO)C(=O)N[C@H](C(=O)N[C@@H](CCCNC(=N)N)C(=O)N[C@@H](CCCNC(=N)N)C(=O)N[C@@H](CO)C(=O)N[C@@H](Cc1ccc(O)cc1)C(=O)N[C@@H](CC(=O)O)C(=O)N[C@@H](CO)C(=O)N[C@@H](CO)C(=O)N[C@@H](CO)C(=O)NCC(=O)N[C@@H](CO)C(N)=O)C(C)C [Ser19Asp] (Biotin-YSSYSAPVSSSLSVRRSYDSSSGS-NH2)	25.2±4.8 % of cells	19.2±1.5 % of cells	decreased internalization	not altered
CC(C)C[C@H](NC(=O)[C@H](CO)NC(=O)[C@H](CO)NC(=O)[C@H](CO)NC(=O)[C@@H](NC(=O)[C@@H]1CCCN1C(=O)[C@H](C)NC(=O)[C@H](CO)NC(=O)[C@H](Cc1ccc(O)cc1)NC(=O)[C@H](CO)NC(=O)[C@H](CO)NC(=O)[C@H](Cc1ccc(O)cc1)NC(=O)CCCC[C@@H]1SC[C@@H]2NC(=O)N[C@@H]21)C(C)C)C(=O)N[C@@H](CO)C(=O)N[C@H](C(=O)N[C@@H](CCCNC(=N)N)C(=O)N[C@@H](CCCNC(=N)N)C(=O)N[C@@H](CO)C(=O)N[C@@H](Cc1ccc(O)cc1)C(=O)N[C@@H](CO)C(=O)N[C@@H](C)C(=O)N[C@@H](CO)C(=O)N[C@@H](CO)C(=O)NCC(=O)N[C@@H](CO)C(N)=O)C(C)C [Ser20Ala] (Biotin-YSSYSAPVSSSLSVRRSYSASSGS-NH2)	6.4±1.2 % of cells	16.4±6.4 % of cells		
CC(C)C[C@H](NC(=O)[C@H](CO)NC(=O)[C@H](CO)NC(=O)[C@H](CO)NC(=O)[C@@H](NC(=O)[C@@H]1CCCN1C(=O)[C@H](C)NC(=O)[C@H](CO)NC(=O)[C@H](Cc1ccc(O)cc1)NC(=O)[C@H](CO)NC(=O)[C@H](CO)NC(=O)[C@H](Cc1ccc(O)cc1)NC(=O)CCCC[C@@H]1SC[C@@H]2NC(=O)N[C@@H]21)C(C)C)C(=O)N[C@@H](CO)C(=O)N[C@H](C(=O)N[C@@H](CCCNC(=N)N)C(=O)N[C@@H](CCCNC(=N)N)C(=O)N[C@@H](CO)C(=O)N[C@@H](Cc1ccc(O)cc1)C(=O)N[C@@H](CO)C(=O)N[C@@H](CO)C(=O)N[C@@H](C)C(=O)N[C@@H](CO)C(=O)NCC(=O)N[C@@H](CO)C(N)=O)C(C)C [Ser21Ala] (Biotin-YSSYSAPVSSSLSVRRSYSSASGS-NH2)	55.4±5.9 % of cells	31.6±5.1 % of cells		
CC(C)C[C@H](NC(=O)[C@H](CO)NC(=O)[C@H](CO)NC(=O)[C@H](CO)NC(=O)[C@@H](NC(=O)[C@@H]1CCCN1C(=O)[C@H](C)NC(=O)[C@H](CO)NC(=O)[C@H](Cc1ccc(O)cc1)NC(=O)[C@H](CO)NC(=O)[C@H](CO)NC(=O)[C@H](Cc1ccc(O)cc1)NC(=O)CCCC[C@@H]1SC[C@@H]2NC(=O)N[C@@H]21)C(C)C)C(=O)N[C@@H](CO)C(=O)N[C@H](C(=O)N[C@@H](CCCNC(=N)N)C(=O)N[C@@H](CCCNC(=N)N)C(=O)N[C@@H](CO)C(=O)N[C@@H](Cc1ccc(O)cc1)C(=O)N[C@@H](CO)C(=O)N[C@@H](CO)C(=O)N[C@@H](CO)C(=O)N[C@@H](CO)C(=O)NCC(=O)N[C@@H](C)C(N)=O)C(C)C [Ser24Ala] (Biotin-YSSYSAPVSSSLSVRRSYSSSSGA-NH2)	44.3±6.7 % of cells	29.4±0.6 % of cells		
CC(C)C[C@H](NC(=O)[C@H](CO)NC(=O)[C@H](CO)NC(=O)[C@H](CO)NC(=O)[C@@H](NC(=O)[C@@H]1CCCN1C(=O)[C@H](C)NC(=O)[C@H](CO)NC(=O)[C@H](Cc1ccc(O)cc1)NC(=O)[C@H](CO)NC(=O)[C@H](CO)NC(=O)[C@H](C)NC(=O)CCCC[C@@H]1SC[C@@H]2NC(=O)N[C@@H]21)C(C)C)C(=O)N[C@@H](CO)C(=O)N[C@H](C(=O)N[C@@H](CCCNC(=N)N)C(=O)N[C@@H](CCCNC(=N)N)C(=O)N[C@@H](CO)C(=O)N[C@@H](Cc1ccc(O)cc1)C(=O)N[C@@H](CO)C(=O)N[C@@H](CO)C(=O)N[C@@H](CO)C(=O)N[C@@H](CO)C(=O)NCC(=O)N[C@@H](CO)C(N)=O)C(C)C [Tyr1Ala] (Biotin-ASSYSAPVSSSLSVRRSYSSSSGS-NH2)	0 % of cells	24.1±4.6 % of cells		
CC(C)C[C@H](NC(=O)[C@H](CO)NC(=O)[C@H](CO)NC(=O)[C@H](CO)NC(=O)[C@@H](NC(=O)[C@@H]1CCCN1C(=O)[C@H](C)NC(=O)[C@H](CO)NC(=O)[C@H](Cc1ccc(O)cc1)NC(=O)[C@H](CO)NC(=O)[C@H](CO)NC(=O)[C@H](Cc1ccccc1)NC(=O)CCCC[C@@H]1SC[C@@H]2NC(=O)N[C@@H]21)C(C)C)C(=O)N[C@@H](CO)C(=O)N[C@H](C(=O)N[C@@H](CCCNC(=N)N)C(=O)N[C@@H](CCCNC(=N)N)C(=O)N[C@@H](CO)C(=O)N[C@@H](Cc1ccc(O)cc1)C(=O)N[C@@H](CO)C(=O)N[C@@H](CO)C(=O)N[C@@H](CO)C(=O)N[C@@H](CO)C(=O)NCC(=O)N[C@@H](CO)C(N)=O)C(C)C [Tyr1Phe] (Biotin-FSSYSAPVSSSLSVRRSYSSSSGS-NH2)	56.3±2.8 % of cells	41.2±4.0 % of cells		
CC(C)C[C@H](NC(=O)[C@H](CO)NC(=O)[C@H](CO)NC(=O)[C@H](CO)NC(=O)[C@@H](NC(=O)[C@@H]1CCCN1C(=O)[C@H](C)NC(=O)[C@H](CO)NC(=O)[C@H](C)NC(=O)[C@H](CO)NC(=O)[C@H](CO)NC(=O)[C@H](Cc1ccc(O)cc1)NC(=O)CCCC[C@@H]1SC[C@@H]2NC(=O)N[C@@H]21)C(C)C)C(=O)N[C@@H](CO)C(=O)N[C@H](C(=O)N[C@@H](CCCNC(=N)N)C(=O)N[C@@H](CCCNC(=N)N)C(=O)N[C@@H](CO)C(=O)N[C@@H](Cc1ccc(O)cc1)C(=O)N[C@@H](CO)C(=O)N[C@@H](CO)C(=O)N[C@@H](CO)C(=O)N[C@@H](CO)C(=O)NCC(=O)N[C@@H](CO)C(N)=O)C(C)C [Tyr4Ala] (Biotin-YSSASAPVSSSLSVRRSYSSSSGS-NH2)	5.3±2.4 % of cells	24.4±4.6 % of cells		
CC(C)C[C@H](NC(=O)[C@H](CO)NC(=O)[C@H](CO)NC(=O)[C@H](CO)NC(=O)[C@@H](NC(=O)[C@@H]1CCCN1C(=O)[C@H](C)NC(=O)[C@H](CO)NC(=O)[C@H](Cc1ccc(O)cc1)NC(=O)[C@H](CO)NC(=O)[C@H](CO)NC(=O)[C@H](Cc1ccc(O)cc1)NC(=O)CCCC[C@@H]1SC[C@@H]2NC(=O)N[C@@H]21)C(C)C)C(=O)N[C@@H](CO)C(=O)N[C@H](C(=O)N[C@@H](CCCNC(=N)N)C(=O)N[C@@H](CCCNC(=N)N)C(=O)N[C@@H](CO)C(=O)N[C@@H](C)C(=O)N[C@@H](CO)C(=O)N[C@@H](CO)C(=O)N[C@@H](CO)C(=O)N[C@@H](CO)C(=O)NCC(=O)N[C@@H](CO)C(N)=O)C(C)C [Tyr18Ala] (Biotin-YSSYSAPVSSSLSVRRSASSSSGS-NH2)	7.9±0.9 % of cells	16.0±2.8 % of cells		
CC(C)C[C@H](NC(=O)[C@H](CO)NC(=O)[C@H](CO)NC(=O)[C@H](CO)NC(=O)[C@H](C)NC(=O)[C@@H]1CCCN1C(=O)[C@H](C)NC(=O)[C@H](CO)NC(=O)[C@H](Cc1ccc(O)cc1)NC(=O)[C@H](CO)NC(=O)[C@H](CO)NC(=O)[C@H](Cc1ccc(O)cc1)NC(=O)CCCC[C@@H]1SC[C@@H]2NC(=O)N[C@@H]21)C(=O)N[C@@H](CO)C(=O)N[C@H](C(=O)N[C@@H](CCCNC(=N)N)C(=O)N[C@@H](CCCNC(=N)N)C(=O)N[C@@H](CO)C(=O)N[C@@H](Cc1ccc(O)cc1)C(=O)N[C@@H](CO)C(=O)N[C@@H](CO)C(=O)N[C@@H](CO)C(=O)N[C@@H](CO)C(=O)NCC(=O)N[C@@H](CO)C(N)=O)C(C)C [Val8Ala] (Biotin-YSSYSAPASSSLSVRRSYSSSSGS-NH2)	9.9±3.4 % of cells	23.6±2.1 % of cells		
